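All cell lines were grown in 96-well plates and treated with compound for 48 hours. TGI: concentration producing complete growth inhibition.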
Experiments:
Assay in all cases: growth of human tumour cells (NCI), 48 h
M19-MEL melanoma = tested on: M19-MEL melanoma
DMS 114 small cell lung = tested on: DMS 114 small cell lung
EKVX NSCLC = tested on: EKVX NSCLC
OVCAR-3 ovarian = tested on: OVCAR-3 ovarian
KM12 colon = tested on: KM12 colon
UACC-257 melanoma = tested on: UACC-257 melanoma
HCC-2998 colon = tested on: HCC-2998 colon
U251 CNS = tested on: U251 CNS
LOX IMVI melanoma = tested on: LOX IMVI melanoma
SK-MEL-2 melanoma = tested on: SK-MEL-2 melanoma
NCI-H460 lung = tested on: NCI-H460 lung
OVCAR-5 ovarian = tested on: OVCAR-5 ovarian
HCT-116 colon = tested on: HCT-116 colon
TK-10 renal = tested on: TK-10 renal
786-0 renal = tested on: 786-0 renal
SR leukemia = tested on: SR leukemia
SNB-19 CNS = tested on: SNB-19 CNS
CAKI-1 renal = tested on: CAKI-1 renal
CCRF-CEM leukemia = tested on: CCRF-CEM leukemia
SK-OV-3 ovarian = tested on: SK-OV-3 ovarian
A549 NSCLC = tested on: A549 NSCLC
HOP-62 NSCLC = tested on: HOP-62 NSCLC
UACC-62 melanoma = tested on: UACC-62 melanoma
SF-295 CNS = tested on: SF-295 CNS
DLD-1 colon = tested on: DLD-1 colon
SF-539 CNS = tested on: SF-539 CNS
SK-MEL-28 melanoma = tested on: SK-MEL-28 melanoma
MALME-3M melanoma = tested on: MALME-3M melanoma
SK-MEL-5 melanoma = tested on: SK-MEL-5 melanoma
RXF-631 renal = tested on: RXF-631 renal
NCI-H226 lung = tested on: NCI-H226 lung
HT29 colon = tested on: HT29 colon
SF-268 CNS = tested on: SF-268 CNS
NCI-H23 lung = tested on: NCI-H23 lung
MOLT-4 leukemia = tested on: MOLT-4 leukemia
COLO 205 colon = tested on: COLO 205 colon
NCI-H522 lung = tested on: NCI-H522 lung
K-562 leukemia = tested on: K-562 leukemia
HL-60(TB) leukemia = tested on: HL-60(TB) leukemia
SW-620 colon = tested on: SW-620 colon
KM20L2 colon = tested on: KM20L2 colon
LXFL 529 NSCLC = tested on: LXFL 529 NSCLC
DMS 273 small cell lung = tested on: DMS 273 small cell lung
ACHN renal = tested on: ACHN renal
RXF 393 renal = tested on: RXF 393 renal
HOP-18 NSCLC = tested on: HOP-18 NSCLC
IGROV1 ovarian = tested on: IGROV1 ovarian
RPMI-8226 leukemia = tested on: RPMI-8226 leukemia
HOP-92 NSCLC = tested on: HOP-92 NSCLC
SN12C renal = tested on: SN12C renal
OVCAR-8 ovarian = tested on: OVCAR-8 ovarian

Measured: TGI

ON/N=C/c1cc2c(cc1Br)OCO2
> 386 µM: M19-MEL melanoma | DMS 114 small cell lung | EKVX NSCLC | OVCAR-3 ovarian | KM12 colon | UACC-257 melanoma | HCC-2998 colon | U251 CNS | LOX IMVI melanoma | SK-MEL-2 melanoma | NCI-H460 lung | OVCAR-5 ovarian | HCT-116 colon | TK-10 renal | 786-0 renal | SR leukemia | SNB-19 CNS | CAKI-1 renal | CCRF-CEM leukemia | SK-OV-3 ovarian | A549 NSCLC | HOP-62 NSCLC | UACC-62 melanoma | SF-295 CNS | DLD-1 colon | SF-539 CNS | SK-MEL-28 melanoma | MALME-3M melanoma | SK-MEL-5 melanoma | RXF-631 renal | NCI-H226 lung | HT29 colon | SF-268 CNS | NCI-H23 lung | MOLT-4 leukemia | COLO 205 colon | NCI-H522 lung | K-562 leukemia | HL-60(TB) leukemia | SW-620 colon | KM20L2 colon | LXFL 529 NSCLC | DMS 273 small cell lung | ACHN renal | RXF 393 renal | HOP-18 NSCLC | IGROV1 ovarian | RPMI-8226 leukemia | HOP-92 NSCLC | SN12C renal | OVCAR-8 ovarian
